Reference: ChEMBL document CHEMBL5465560, “Selectivity Literature for EUbOPEN Chemogenomic Library” (2024)

Assays:
[1] = target: T1, Tyrosine-protein kinase TXK (Homo sapiens) (UniProt P42681); conditions: at 10 µM
T1 sequence (whole entry): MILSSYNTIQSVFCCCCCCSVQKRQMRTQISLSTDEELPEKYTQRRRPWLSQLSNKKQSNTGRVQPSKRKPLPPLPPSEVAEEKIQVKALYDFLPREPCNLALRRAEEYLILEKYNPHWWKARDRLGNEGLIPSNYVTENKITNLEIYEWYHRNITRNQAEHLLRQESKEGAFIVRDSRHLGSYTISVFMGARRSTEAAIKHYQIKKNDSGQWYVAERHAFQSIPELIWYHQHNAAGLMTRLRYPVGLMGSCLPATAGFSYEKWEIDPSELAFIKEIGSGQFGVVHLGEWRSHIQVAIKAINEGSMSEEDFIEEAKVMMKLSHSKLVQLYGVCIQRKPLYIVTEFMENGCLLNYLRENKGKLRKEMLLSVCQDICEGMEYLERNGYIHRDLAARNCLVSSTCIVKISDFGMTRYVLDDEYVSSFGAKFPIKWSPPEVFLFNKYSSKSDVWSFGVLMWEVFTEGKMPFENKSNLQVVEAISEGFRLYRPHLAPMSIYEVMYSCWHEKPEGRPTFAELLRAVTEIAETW

[2] = target: Serine/threonine-protein kinase 10 (Homo sapiens) (UniProt O94804); assay: Selectivity interaction (Kinase panel (KiNativ target engagement assay in Jurkat cells)) EUB0001635a STK10; format: cell-based; conditions: Selectivity number of off-targets 0.0, Selectivity number of targets 233.0, Source Knowledge https://www.sciencedirect.com/science/article/pii/S2451945619300674?via%3Dihub, at 1 µM
Chain of Serine/threonine-protein kinase 10 (Homo sapiens) (O94804 whole entry, looked up): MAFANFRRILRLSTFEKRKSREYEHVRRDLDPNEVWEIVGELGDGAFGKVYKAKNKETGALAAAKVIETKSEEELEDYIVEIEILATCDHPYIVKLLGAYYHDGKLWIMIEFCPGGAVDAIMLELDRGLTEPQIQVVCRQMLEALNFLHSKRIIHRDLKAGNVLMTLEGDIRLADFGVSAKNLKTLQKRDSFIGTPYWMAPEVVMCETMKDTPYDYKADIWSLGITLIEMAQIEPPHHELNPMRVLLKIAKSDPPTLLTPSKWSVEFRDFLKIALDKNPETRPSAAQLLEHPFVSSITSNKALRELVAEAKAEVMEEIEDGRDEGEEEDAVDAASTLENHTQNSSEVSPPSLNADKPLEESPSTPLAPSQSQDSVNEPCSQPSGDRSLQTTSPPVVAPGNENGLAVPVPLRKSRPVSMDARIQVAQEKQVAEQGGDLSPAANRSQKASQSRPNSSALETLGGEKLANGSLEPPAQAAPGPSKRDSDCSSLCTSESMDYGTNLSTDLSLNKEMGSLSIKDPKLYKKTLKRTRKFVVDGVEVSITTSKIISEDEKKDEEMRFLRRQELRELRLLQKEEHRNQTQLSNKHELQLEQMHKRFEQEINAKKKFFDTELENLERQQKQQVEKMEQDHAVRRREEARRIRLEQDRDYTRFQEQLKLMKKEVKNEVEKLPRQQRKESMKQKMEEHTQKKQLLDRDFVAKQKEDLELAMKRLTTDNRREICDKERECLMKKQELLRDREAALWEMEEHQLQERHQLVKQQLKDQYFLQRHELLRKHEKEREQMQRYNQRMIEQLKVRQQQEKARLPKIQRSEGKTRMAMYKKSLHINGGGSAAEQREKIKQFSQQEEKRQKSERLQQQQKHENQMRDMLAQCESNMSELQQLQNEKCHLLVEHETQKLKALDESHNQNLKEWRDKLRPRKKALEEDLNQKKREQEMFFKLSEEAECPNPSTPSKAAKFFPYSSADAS

[3] = target: Casein kinase II subunit alpha' (Homo sapiens) (UniProt P19784); assay: Selectivity interaction (ActivX KiNativ screen (kinase selectivity in THP-1 cell lysates)) EUB0000639a CSNK2A2; format: subcellular; conditions: lysate
Chain of Casein kinase II subunit alpha' (Homo sapiens) (P19784 whole entry, looked up): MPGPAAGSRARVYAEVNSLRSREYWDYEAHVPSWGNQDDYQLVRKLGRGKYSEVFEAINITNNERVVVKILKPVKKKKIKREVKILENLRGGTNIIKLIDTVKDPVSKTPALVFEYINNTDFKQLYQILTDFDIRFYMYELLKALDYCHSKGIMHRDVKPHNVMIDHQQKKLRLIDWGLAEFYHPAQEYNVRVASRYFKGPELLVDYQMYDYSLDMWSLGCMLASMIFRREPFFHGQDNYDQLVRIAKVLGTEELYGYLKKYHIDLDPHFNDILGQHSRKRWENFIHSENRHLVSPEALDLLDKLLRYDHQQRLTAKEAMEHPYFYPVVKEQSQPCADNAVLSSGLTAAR

[4] = target: T2, Inhibitor of nuclear factor kappa-B kinase subunit beta (Homo sapiens) (UniProt O14920); assay: Selectivity interaction (KinomeScan (DiscoverX)) EUB0000607a IKBKB; conditions: at 10 µM
T2 sequence (whole entry): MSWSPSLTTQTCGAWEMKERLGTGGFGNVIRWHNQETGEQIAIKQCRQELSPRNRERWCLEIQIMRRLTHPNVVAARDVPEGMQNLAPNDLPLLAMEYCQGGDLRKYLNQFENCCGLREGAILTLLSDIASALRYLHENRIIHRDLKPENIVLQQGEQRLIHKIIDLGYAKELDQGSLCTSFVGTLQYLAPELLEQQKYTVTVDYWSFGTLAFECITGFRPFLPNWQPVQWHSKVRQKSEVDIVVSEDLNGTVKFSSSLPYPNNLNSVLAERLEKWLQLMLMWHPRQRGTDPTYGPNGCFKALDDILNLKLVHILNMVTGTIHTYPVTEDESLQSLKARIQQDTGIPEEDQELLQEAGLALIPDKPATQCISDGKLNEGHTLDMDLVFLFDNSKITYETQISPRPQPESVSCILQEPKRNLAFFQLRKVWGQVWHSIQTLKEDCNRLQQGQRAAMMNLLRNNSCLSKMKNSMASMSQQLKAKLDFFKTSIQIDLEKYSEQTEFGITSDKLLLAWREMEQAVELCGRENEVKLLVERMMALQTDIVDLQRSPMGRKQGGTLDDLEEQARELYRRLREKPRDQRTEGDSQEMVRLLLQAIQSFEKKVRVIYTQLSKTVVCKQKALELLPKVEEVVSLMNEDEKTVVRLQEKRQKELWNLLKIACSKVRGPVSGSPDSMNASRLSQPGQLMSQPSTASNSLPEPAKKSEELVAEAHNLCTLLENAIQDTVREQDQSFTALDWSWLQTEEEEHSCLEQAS

[5] = target: MAP kinase-activated protein kinase 2 (Homo sapiens, UniProt P49137); assay: Selectivity interaction (SelectScreen profiling (Invitrogen)) EUB0000607a MAPKAPK2; conditions: at 2 µM
Chain of MAP kinase-activated protein kinase 2 (P49137 whole entry, looked up): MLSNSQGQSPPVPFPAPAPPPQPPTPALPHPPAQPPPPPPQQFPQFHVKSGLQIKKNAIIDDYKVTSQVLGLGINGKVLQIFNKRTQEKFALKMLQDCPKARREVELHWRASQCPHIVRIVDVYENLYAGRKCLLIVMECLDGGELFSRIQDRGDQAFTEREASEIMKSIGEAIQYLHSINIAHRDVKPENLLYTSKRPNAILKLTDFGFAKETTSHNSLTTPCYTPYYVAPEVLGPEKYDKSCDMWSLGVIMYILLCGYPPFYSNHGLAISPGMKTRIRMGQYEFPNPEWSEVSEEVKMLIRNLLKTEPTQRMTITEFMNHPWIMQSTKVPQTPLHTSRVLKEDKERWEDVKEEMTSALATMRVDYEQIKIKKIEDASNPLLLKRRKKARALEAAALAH

[6] = target: T3, Tyrosine-protein kinase JAK3 (Homo sapiens) (UniProt P52333); assay: Selectivity interaction (KinomeScan (DiscoverX)) EUB0001619a JAK3; conditions: at 1 µM
T3 sequence (whole entry): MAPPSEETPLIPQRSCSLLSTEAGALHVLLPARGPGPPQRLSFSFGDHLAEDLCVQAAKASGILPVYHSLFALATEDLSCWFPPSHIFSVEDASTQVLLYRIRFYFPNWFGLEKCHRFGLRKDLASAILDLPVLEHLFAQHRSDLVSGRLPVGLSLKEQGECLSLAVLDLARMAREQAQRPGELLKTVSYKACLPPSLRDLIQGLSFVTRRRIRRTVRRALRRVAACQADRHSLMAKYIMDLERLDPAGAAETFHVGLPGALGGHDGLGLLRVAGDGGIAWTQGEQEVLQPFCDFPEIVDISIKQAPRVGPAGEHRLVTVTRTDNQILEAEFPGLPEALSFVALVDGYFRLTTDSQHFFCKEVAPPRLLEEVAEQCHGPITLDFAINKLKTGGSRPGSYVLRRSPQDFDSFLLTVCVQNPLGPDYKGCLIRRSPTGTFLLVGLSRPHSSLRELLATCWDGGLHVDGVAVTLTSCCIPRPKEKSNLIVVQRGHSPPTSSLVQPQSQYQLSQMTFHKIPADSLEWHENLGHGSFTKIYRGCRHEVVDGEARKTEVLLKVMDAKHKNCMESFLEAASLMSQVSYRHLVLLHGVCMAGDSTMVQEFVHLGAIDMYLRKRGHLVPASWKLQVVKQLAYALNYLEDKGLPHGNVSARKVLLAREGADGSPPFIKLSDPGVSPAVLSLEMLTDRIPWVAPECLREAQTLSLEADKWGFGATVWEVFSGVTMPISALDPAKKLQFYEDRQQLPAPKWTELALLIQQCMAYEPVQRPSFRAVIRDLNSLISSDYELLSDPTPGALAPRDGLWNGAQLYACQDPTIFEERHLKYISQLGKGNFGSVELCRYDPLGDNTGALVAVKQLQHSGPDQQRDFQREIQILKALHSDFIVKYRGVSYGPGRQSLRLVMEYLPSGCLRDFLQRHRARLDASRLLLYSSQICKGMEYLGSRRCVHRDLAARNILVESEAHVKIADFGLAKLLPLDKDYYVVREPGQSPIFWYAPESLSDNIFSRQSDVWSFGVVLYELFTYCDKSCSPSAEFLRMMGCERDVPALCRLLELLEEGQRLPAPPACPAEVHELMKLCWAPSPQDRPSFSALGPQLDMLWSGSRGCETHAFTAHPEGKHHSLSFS

SMILES: CCN(CC)CCCCNc1ncc2cc(-c3cc(OC)cc(OC)c3)c(NC(=O)NC(C)(C)C)nc2n1
- % of control [1]: 100%

SMILES: C=CC(=O)Nc1ccc(C(=O)Nc2[nH]nc3c2CN(C(=O)N[C@H](CN(C)C)c2ccccc2)C3(C)C)cc1
- % of engagement [2]: -1.6%

SMILES: CC[C@@H]1[C@H](F)C(=O)N[C@@H]1COc1nccc2cc(C(N)=O)c(OC)cc12 [ZIMLOVISERTIB]
- % of inhibition ([3]; at 0.01 µM): -4.5%
- % of inhibition ([3]; at 0.04 µM): -21.2%
- % of inhibition ([3]; at 0.2 µM): -18%
- % of inhibition ([3]; at 1 µM): -3.6%
- % of inhibition ([3]; at 5 µM): -2.6%

SMILES: CNC(=O)Nc1ccc(-c2nc(N3CC4CCC(C3)O4)c3cnn(C4CCC5(CC4)OCCO5)c3n2)cc1
- % of control [4]: 79%
- % of inhibition [5]: 4%

SMILES: N#Cc1cccc(-c2c[nH]c3ncnc(N4CCOCC4)c23)c1
- % of control [6]: 2.7%
